The experiment deals with Stimulator of interferon genes protein (Homo sapiens, UniProt Q86WV6). Briefly: WT STING Binding Assay. On the procedure: Upon proximity of the two dyes, the excitation of the donor by the flash lamp on the PHERAstar FSX plate reader triggers a Fluorescence Resonance Energy Transfer (FRET) towards the acceptor, which in turn fluoresces at 665 nm. To assess the ability of the synthetic small molecule STING ligands to bind to human STING, a competitive assay format was applied. A 10-point titration of each of the synthetic ligands in 5 uL were transferred into a 384 well plate, followed by 20 uL of assay buffer containing the 6×His-tagged human STING protein and labeled 2′3′cGAMP ligand and incubated for three hours at room temperature. The raw values obtained from the PHERAstar were used to calculate the reported IC50 values (the signal is inversely proportional to the binding of the synthetic ligand) through curve fitting in Genedata. The percent inhibition was calculated based upon the maximal amount of binding by synthetic compound versus the maximum binding of unlabeled 2′3′ cGAMP which was used as a control in each assay.

Broadly, the IC50 is the concentration that inhibits the measured activity by half. Low readings indicate greater potency, high ones weaker potency.

Stimulator of interferon genes protein, sequence (Q86WV6 whole entry): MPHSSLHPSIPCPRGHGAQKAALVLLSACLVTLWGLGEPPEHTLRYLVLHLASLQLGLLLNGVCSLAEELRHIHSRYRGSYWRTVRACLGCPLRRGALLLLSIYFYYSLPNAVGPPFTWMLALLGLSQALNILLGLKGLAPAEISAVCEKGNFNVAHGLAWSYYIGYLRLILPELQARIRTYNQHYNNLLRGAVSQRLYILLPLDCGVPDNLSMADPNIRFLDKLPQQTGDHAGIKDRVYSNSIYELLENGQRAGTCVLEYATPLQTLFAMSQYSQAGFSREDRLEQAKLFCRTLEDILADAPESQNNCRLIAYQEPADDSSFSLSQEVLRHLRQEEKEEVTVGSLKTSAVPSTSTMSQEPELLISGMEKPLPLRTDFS

On to `COc1cc(C(=O)O)c(NC(=O)c2ccc(-n3ccnc3)nn2)cc1OCCc1cc(C(=O)O)c(NC(=O)c2ccc(-n3ccnc3)nn2)cc1Cl` [US20230357253, Compound 156], for which the IC50 is under 0.01 µM.
On to `O=C(Nc1cc(CCCc2cc(NC(=O)c3ccc(-n4ccnc4)nn3)c(C(=O)O)cc2F)c(F)cc1C(=O)O)c1ccc(-c2cn[nH]c2)nn1` [US20230357253, Compound 159], for which the IC50 was under 0.01 µM.
Then `N#Cc1cc(C(=O)O)c(NC(=O)c2ccc(-n3ccnc3)nn2)cc1CCOc1cc(NC(=O)c2ccc(-n3ccnc3)nn2)c(C(=O)O)cc1F` [US20230357253, Compound 162], with under 0.01 µM.
Then `O=C(Nc1cc(CCCc2cc(NC(=O)c3ccc(-n4ccnc4)nn3)c(C(=O)O)s2)c(F)cc1C(=O)O)c1ccc(-n2ccnc2)nn1` [US20230357253, Compound 164], with under 0.01 µM; and `O=C(Nc1cc(OCCc2cc(C(=O)O)c(NC(=O)c3ccc(-n4ccnc4)nn3)cc2Cl)c(F)cc1C(=O)O)c1ccc(-n2ccnc2)nn1` [US20230357253, Compound 166], with under 0.01 µM.
Under `O=C(Nc1cc(OCCCOc2cc(NC(=O)c3ccc(-n4ccnc4)nn3)c(C(=O)O)cc2F)c(F)cc1C(=O)O)c1ccc(-n2ccnc2)nn1` [US20230357253, Compound 168] stands under 0.01 µM; under `O=C(Nc1cc(OCCc2cc(C(=O)O)c(NC(=O)c3ccc4nnnn4n3)cc2F)c(F)cc1C(=O)O)c1ccc(-n2ccnc2)nn1` [US20230357253, Compound 169], under 0.01 µM.
In the case of `O=C(Nc1cc(CCCc2cc(NC(=O)c3ccc(-n4ccnc4)nn3)c(C(=O)O)cc2Cl)c(F)cc1C(=O)O)c1ccc(-n2ccnc2)nn1` [US20230357253, Compound 174], the IC50 is under 0.01 µM.
Compound `O=C(Nc1cc(OCCc2c(F)cc(NC(=O)c3ccc(-n4ccnc4)nn3)c(C(=O)O)c2F)c(F)cc1C(=O)O)c1ccc(-n2ccnc2)nn1` [US20230357253, Compound 177] displayed an IC50 of under 0.01 µM.
Then `O=C(Nc1cc(CCc2cc(C(=O)O)c(NC(=O)c3ccc(-n4ccnc4)nn3)cc2F)c(F)cc1C(=O)O)c1ccc(-n2ccnc2)nn1` [US20230357253, Compound 180], with over 1 µM.
Under `N#Cc1cc(C(=O)O)c(NC(=O)c2ccc(-n3ccnc3)nn2)cc1CCCc1cc(NC(=O)c2ccc(-n3ccnc3)nn2)c(C(=O)O)cc1F` [US20230357253, Compound 182] stands under 0.01 µM.
The compound `O=C(Nc1cc(OCc2cc(C(=O)O)c(NC(=O)c3ccc(-n4ccnc4)nn3)cc2F)c(F)cc1C(=O)O)c1ccc(-n2ccnc2)nn1` [US20230357253, Compound 190] displayed an IC50 of over 1 µM.
Then `O=C(Nc1cc(OCCOc2cc(C(=O)O)c(NC(=O)c3ccc(-n4ccnc4)nn3)cc2F)c(F)cc1C(=O)O)c1ccc(-n2ccnc2)nn1` [US20230357253, Compound 191], with under 0.01 µM; and `CC(Cc1cc(NC(=O)c2ccc(-n3ccnc3)nn2)c(C(=O)O)cc1F)Cc1cc(NC(=O)c2ccc(-n3ccnc3)nn2)c(C(=O)O)cc1F` [US20230357253, Compound 194], with under 0.01 µM; and `O=C(Nc1cc(CCSc2cc(NC(=O)c3ccc(-n4ccnc4)nn3)c(C(=O)O)cc2F)c(F)cc1C(=O)O)c1ccc(-n2ccnc2)nn1` [US20230357253, Compound 195], with under 0.01 µM.
Under `C=C(Cc1cc(NC(=O)c2ccc(-n3ccnc3)nn2)c(C(=O)O)cc1F)Cc1cc(NC(=O)c2ccc(-n3ccnc3)nn2)c(C(=O)O)cc1F` [US20230357253, Compound 199] stands under 0.01 µM; under `O=C(Nc1cc(CC[S+]([O-])c2cc(NC(=O)c3ccc(-n4ccnc4)nn3)c(C(=O)O)cc2F)c(F)cc1C(=O)O)c1ccc(-n2ccnc2)nn1` (stereo not drawn) [US20230357253, Compound 200], over 1 µM; under `O=C(Nc1cc(OCCc2cc(C(=O)O)c(NC(=O)c3ccc(-c4cn[nH]c4)nn3)cc2F)c(F)cc1C(=O)O)c1ccc(-c2cn[nH]c2)nn1` [US20230357253, Compound 204], under 0.01 µM.
Then `O=C(Nc1cc(CCOc2cc(NC(=O)c3ccc(-n4ccnc4)nn3)c(C(=O)O)cc2F)c(F)cc1C(=O)O)c1ccc(-c2cn[nH]c2)nn1` [US20230357253, Compound 205], with under 0.01 µM; and `Cn1nccc1-c1ccc(C(=O)Nc2cc(OCCCOc3cc(NC(=O)c4ccc(-c5ccnn5C)nn4)c(C(=O)O)cc3F)c(F)cc2C(=O)O)nn1` [US20230357253, Compound 206], with over 1 µM; and `Cn1nccc1-c1ccc(C(=O)Nc2cc(CCCc3cc(NC(=O)c4ccc(-n5ccnc5)nn4)c(C(=O)O)cc3F)c(F)cc2C(=O)O)nn1` [US20230357253, Compound 207], with over 1 µM.
In turn, `O=C(Nc1cc(CCCc2cc(NC(=O)c3ccc(-n4ccnc4)nn3)c(C(=O)O)cc2F)c(F)cc1C(=O)O)c1ccc(N2CCOCC2)nn1` [US20230357253, Compound 212] registered an IC50 of over 1 µM.
Under `O=C(Nc1cc(CCCc2cc(NC(=O)c3ccc(-n4ccnc4)nn3)c(C(=O)O)cc2F)c(F)cc1C(=O)O)c1ccc(N2CCNCC2)nn1` [US20230357253, Compound 214] stands over 1 µM.

The record behind these values is BindingDB's records for patent US20230357253 (The Scripps Research Institute, 2023).
